From ChEMBL document CHEMBL4732247, “Discovery of A031 as effective proteolysis targeting chimera (PROTAC) androgen receptor (AR) degrader for the treatment of prostate cancer” (Eur J Med Chem, 2021) come the findings set out here.

In experiment [1] the test system is VCaP. Description: Cytotoxicity against human VCaP cells assessed as growth inhibition at 0.125 uM after 4 days by CCK8 assay relative to control. The experiment is classed as functional. To be noted: 96 h, time 4 day, read-out: GI. (In general: Tetrazolium dyes change colour on reduction, which living cells bring about.)
Experiment [2] concerns VCaP. Description: Cytotoxicity against human VCaP cells assessed as growth inhibition at 0.25 uM after 4 days by CCK8 assay relative to control. To be noted: 96 h, time 4 day, read-out: GI. The experiment is classed as functional.
Experiment [3] deals with VCaP. The experiment in a line: Cytotoxicity against human VCaP cells assessed as growth inhibition at 1 uM after 4 days by CCK8 assay relative to control. The experiment is classed as functional. As to conditions: 96 h, time 4 day, read-out: GI.
In experiment [4] the test system is VCaP. The experiment in a line: Cytotoxicity against human VCaP cells assessed as growth inhibition at 0.5 uM after 4 days by CCK8 assay relative to control. The experiment is classed as functional. To be noted: 96 h, time 4 day, read-out: GI.
The test system of experiment [5] is VCaP. Description: Cytotoxicity against human VCaP cells assessed as growth inhibition after 4 days by CCK8 assay. The experiment is classed as functional, cell-based. As to conditions: dose 0.032-4 µM, time 4.0 day.

For the compound `N#Cc1ccc(O[C@H]2C[C@H]3CC[C@@H](C2)N3C(=O)c2cnc(N3CCN(CCCCCCNc4ccc5c(c4)C(=O)N(C4CCC(=O)NC4=O)C5=O)CC3)nc2)cc1Cl` (stereo partly specified), in the experiment with VCaP [1], the inhibition of growth at 0.125 µM was determined as 31.7%. The inhibition of growth at 0.25 µM in the experiment on VCaP [2] was 36.3%. Also, the inhibition of growth at 1 µM with VCaP [3] was found to be 38.9%. Further, in the experiment with VCaP [4], the inhibition of growth at 0.5 µM was 37.8%.
In the case of `N#Cc1ccc(O[C@H]2C[C@H]3CC[C@@H](C2)N3C(=O)c2cnc(N3CCN(CCCCCNc4cccc5c4C(=O)N(C4CCC(=O)NC4=O)C5=O)CC3)nc2)cc1Cl` (stereo partly specified), in the experiment on VCaP [1], the inhibition of growth at 0.125 µM came out at 20%. Besides, the inhibition of growth at 0.25 µM in the experiment on VCaP [2] turned out to be 24.6%. Moreover, the inhibition of growth at 1 µM in the experiment on VCaP [3] was determined as 36.9%. Moreover, the inhibition of growth at 0.5 µM in the experiment with VCaP [4] amounted to 30.1%. Further, the “growth inhibition (GI)” value with VCaP [5] is “Dose-dependent effect”.
As to `N#Cc1ccc(O[C@H]2C[C@H]3CC[C@@H](C2)N3C(=O)c2cnc(N3CCN(CCCCCNc4ccc5c(c4)C(=O)N(C4CCC(=O)NC4=O)C5=O)CC3)nc2)cc1Cl` (stereo partly specified), the inhibition of growth at 0.125 µM with VCaP [1] is 20.4%. The inhibition of growth at 0.25 µM with VCaP [2] was determined as 31.4%. Also, the inhibition of growth at 1 µM in the experiment on VCaP [3] turned out to be 34.9%. For the same compound, the inhibition of growth at 0.5 µM in the experiment on VCaP [4] stood at 34.2%.
Consider `Cc1ncsc1-c1ccc([C@H](CC(=O)NCCCCCCCCN2CCN(c3ccc(C(=O)N4[C@@H]5CC[C@H]4C[C@@H](Oc4ccc(C#N)c(Cl)c4)C5)cc3)CC2)NC(=O)[C@H]2C[C@H](O)CN2C(=O)[C@H](NC(=O)C2(F)CC2)C(C)(C)C)cc1`, for which the inhibition of growth at 0.25 µM with VCaP [2] turned out to be 11.3%. The inhibition of growth at 1 µM with VCaP [3] was determined as 44.7%. Moreover, in the experiment with VCaP [4], the inhibition of growth at 0.5 µM worked out at 24.1%.
Take `C[C@@]12C[C@H](NC(=O)c3ccc(N4CCN(CCCCCCCCNc5ccc6c(c5)C(=O)N(C5CCC(=O)NC5=O)C6=O)CC4)cc3)C[C@]1(C)C[C@@H](Oc1ccc(C#N)c(Cl)c1)C2` (stereo partly specified): the inhibition of growth at 0.125 µM in the experiment on VCaP [1] turned out to be 6.05%. The inhibition of growth at 0.25 µM in the experiment on VCaP [2] stood at 19.5%. Further, the inhibition of growth at 1 µM with VCaP [3] turned out to be 26%. Besides, the inhibition of growth at 0.5 µM in the experiment on VCaP [4] was 24.6%.
Consider `Cc1ncsc1-c1ccc([C@H](C)NC(=O)[C@@H]2C[C@@H](O)CN2C(=O)[C@@H](NC(=O)COCCN2CCN(c3ccc(C(=O)N4[C@@H]5CC[C@H]4C[C@@H](Oc4ccc(C#N)c(Cl)c4)C5)cn3)CC2)C(C)(C)C)cc1`, for which the inhibition of growth at 0.125 µM in the experiment on VCaP [1] is 28.4%. Also, the inhibition of growth at 0.25 µM in the experiment on VCaP [2] is 7.23%. The inhibition of growth at 1 µM in the experiment with VCaP [3] came out at 72.5%. Also, in the experiment on VCaP [4], the inhibition of growth at 0.5 µM amounted to 63.6%.
On the same counts, the results for `Cc1ncsc1-c1ccc([C@H](C)NC(=O)[C@@H]2C[C@@H](O)CN2C(=O)[C@@H](NC(=O)COCCN2CCN(c3cnc(C(=O)N4[C@@H]5CC[C@H]4C[C@@H](Oc4ccc(C#N)c(Cl)c4)C5)cn3)CC2)C(C)(C)C)cc1` are 42.4%, 52%, 72.3% and 61.5%.
On to `N#Cc1ccc(O[C@H]2C[C@H]3CC[C@@H](C2)N3C(=O)c2cnc(N3CCN(CCCCCCNc4cccc5c4C(=O)N(C4CCC(=O)NC4=O)C5=O)CC3)nc2)cc1Cl` (stereo partly specified), for which the inhibition of growth at 0.125 µM with VCaP [1] was found to be 10.1%. Besides, the inhibition of growth at 0.25 µM in the experiment with VCaP [2] worked out at 23.5%. Further, in the experiment with VCaP [3], the inhibition of growth at 1 µM is 40.5%. In addition, the inhibition of growth at 0.5 µM with VCaP [4] stood at 32.1%. Besides, the “growth inhibition (GI)” value in the experiment on VCaP [5] was “Dose-dependent effect”.
For the compound `N#Cc1ccc(O[C@H]2C[C@H]3CC[C@@H](C2)N3C(=O)c2cnc(N3CCN(CCCNc4cccc5c4C(=O)N(C4CCC(=O)NC4=O)C5=O)CC3)nc2)cc1Cl` (stereo partly specified), the inhibition of growth at 1 µM in the experiment on VCaP [3] turned out to be 30.4%. In the experiment on VCaP [4], the inhibition of growth at 0.5 µM was found to be 9.74%. In the experiment with VCaP [5], the “growth inhibition (GI)” value is “Dose-dependent effect”.
Take `C[C@@]12C[C@H](NC(=O)c3ccc(N4CCN(CCCCCNc5ccc6c(c5)C(=O)N(C5CCC(=O)NC5=O)C6=O)CC4)cc3)C[C@]1(C)C[C@@H](Oc1ccc(C#N)c(Cl)c1)C2` (stereo partly specified): in the experiment on VCaP [1], the inhibition of growth at 0.125 µM worked out at 24.1%. Further, the inhibition of growth at 0.25 µM with VCaP [2] came to 30.3%. Moreover, the inhibition of growth at 1 µM in the experiment with VCaP [3] worked out at 44.5%. Besides, in the experiment with VCaP [4], the inhibition of growth at 0.5 µM was found to be 38.1%.
On the same counts, the results for `Cc1ncsc1-c1ccc([C@H](C)NC(=O)[C@@H]2C[C@@H](O)CN2C(=O)[C@@H](NC(=O)COCCN2CCN(c3ccc(C(=O)N4[C@@H]5CC[C@H]4C[C@@H](Oc4ccc(C#N)c(Cl)c4)C5)cc3)CC2)C(C)(C)C)cc1` are 45%, 61.8%, 76.2% and 70.6%.
The corresponding values for `C[C@@]12C[C@H](NC(=O)c3ccc(N4CCN(CCCCCCCNc5ccc6c(c5)C(=O)N(C5CCC(=O)NC5=O)C6=O)CC4)cc3)C[C@]1(C)C[C@@H](Oc1ccc(C#N)c(Cl)c1)C2` (stereo partly specified) are 7.46%, 14%, 14.8% and 14.3%.
On the same counts, the results for `Cc1ncsc1-c1ccc(CNC(=O)[C@@H]2C[C@@H](O)CN2C(=O)[C@@H](NC(=O)COCCN2CCN(c3ccc(C(=O)N4[C@@H]5CC[C@H]4C[C@@H](Oc4ccc(C#N)c(Cl)c4)C5)cc3)CC2)C(C)(C)C)cc1` are 18.5%, 31.1%, 64.6% and 56.6%.
`Cc1ncsc1-c1ccc([C@H](C)NC(=O)[C@@H]2C[C@@H](O)CN2C(=O)[C@@H](NC(=O)COCCN2CCN(c3ccc(C(=O)N4[C@@H]5CC[C@H]4C[C@@H](Oc4ccc(C#N)c(Cl)c4)C5)nn3)CC2)C(C)(C)C)cc1`: the inhibition of growth at 0.25 µM in the experiment with VCaP [2] is 6.65%. Further, in the experiment with VCaP [3], the inhibition of growth at 1 µM worked out at 28.1%. For the same compound, in the experiment with VCaP [4], the inhibition of growth at 0.5 µM stood at 12.5%.
Regarding `Cc1ncsc1-c1ccc([C@H](CC(=O)NCCCCCCCN2CCN(c3ccc(C(=O)N4[C@@H]5CC[C@H]4C[C@@H](Oc4ccc(C#N)c(Cl)c4)C5)cc3)CC2)NC(=O)[C@H]2C[C@H](O)CN2C(=O)[C@H](NC(=O)C2(F)CC2)C(C)(C)C)cc1`, in the experiment with VCaP [2], the inhibition of growth at 0.25 µM worked out at 2.18%. Further, the inhibition of growth at 1 µM in the experiment with VCaP [3] was 29.8%. Moreover, the inhibition of growth at 0.5 µM in the experiment with VCaP [4] stood at 14.5%.
On the same counts, the results for `C[C@@]12C[C@H](NC(=O)c3ccc(N4CCN(CCCCCCCCCNc5ccc6c(c5)C(=O)N(C5CCC(=O)NC5=O)C6=O)CC4)cc3)C[C@]1(C)C[C@@H](Oc1ccc(C#N)c(Cl)c1)C2` (stereo partly specified) are 18%, 25% and 24.3%.
On to `Cc1ncsc1-c1ccc([C@H](CC(=O)NCCCCCCCCCN2CCN(c3ccc(C(=O)N4[C@@H]5CC[C@H]4C[C@@H](Oc4ccc(C#N)c(Cl)c4)C5)cc3)CC2)NC(=O)[C@H]2C[C@H](O)CN2C(=O)[C@H](NC(=O)C2(F)CC2)C(C)(C)C)cc1`, for which the inhibition of growth at 0.125 µM with VCaP [1] came out at 5.34%. In addition, in the experiment on VCaP [2], the inhibition of growth at 0.25 µM was 15.9%. Besides, in the experiment on VCaP [3], the inhibition of growth at 1 µM worked out at 55.2%. Also, in the experiment on VCaP [4], the inhibition of growth at 0.5 µM stood at 29%.
On to `Cc1ncsc1-c1ccc(CNC(=O)[C@@H]2C[C@@H](O)CN2C(=O)[C@@H](NC(=O)CN2CCN(c3ccc(C(=O)N4[C@@H]5CC[C@H]4C[C@@H](Oc4ccc(C#N)c(Cl)c4)C5)cc3)CC2)C(C)(C)C)cc1`, for which the inhibition of growth at 0.25 µM in the experiment with VCaP [2] amounted to 5.65%. Moreover, in the experiment on VCaP [3], the inhibition of growth at 1 µM worked out at 86.7%. Moreover, the inhibition of growth at 0.5 µM in the experiment with VCaP [4] was found to be 35.1%.
Take `CN1CCC(N2CCC(C#Cc3ccc(C(=O)N4[C@@H]5CC[C@H]4C[C@@H](Oc4ccc(C#N)c(Cl)c4)C5)cc3)CC2)CC1`: the inhibition of growth at 0.125 µM in the experiment on VCaP [1] was 14.9%. Moreover, the inhibition of growth at 0.25 µM in the experiment with VCaP [2] worked out at 23.3%. Moreover, in the experiment with VCaP [3], the inhibition of growth at 1 µM is 34%. Besides, in the experiment on VCaP [4], the inhibition of growth at 0.5 µM is 30.1%.
On the same counts, the results for `N#Cc1ccc(O[C@H]2C[C@H]3CC[C@@H](C2)N3C(=O)c2cnc(N3CCN(CCCNc4ccc5c(c4)C(=O)N(C4CCC(=O)NC4=O)C5=O)CC3)nc2)cc1Cl` (stereo partly specified) are 17.1%, 25.6%, 42.4% and 30.1%.
On the same counts, the results for `Cc1ncsc1-c1ccc([C@H](C)NC(=O)[C@@H]2C[C@@H](O)CN2C(=O)[C@@H](NC(=O)COCCN2CCN(c3ccc(C(=O)N4[C@@H]5CC[C@H]4C[C@@H](Oc4ccc(C#N)c(Cl)c4)C5)nc3)CC2)C(C)(C)C)cc1` are 18.8%, 25.6%, 43.2% and 33.9%.
The corresponding values for `N#Cc1ccc(O[C@H]2C[C@H]3CC[C@@H](C2)N3C(=O)c2cnc(N3CCN(CCCCCCCNc4ccc5c(c4)C(=O)N(C4CCC(=O)NC4=O)C5=O)CC3)nc2)cc1Cl` (stereo partly specified) are 28.1%, 30.7%, 30.4% and 35.2%.
Take `N#Cc1ccc(O[C@H]2C[C@H]3CC[C@@H](C2)N3C(=O)c2cnc(N3CCN(CCCCNc4ccc5c(c4)C(=O)N(C4CCC(=O)NC4=O)C5=O)CC3)nc2)cc1Cl` (stereo partly specified): the inhibition of growth at 0.125 µM in the experiment with VCaP [1] stood at 10.2%. Further, the inhibition of growth at 0.25 µM with VCaP [2] was found to be 22.2%. Further, in the experiment with VCaP [3], the inhibition of growth at 1 µM was found to be 53.1%. Moreover, in the experiment with VCaP [4], the inhibition of growth at 0.5 µM came out at 36.5%.
On the same counts, the results for `Cc1ncsc1-c1ccc(CNC(=O)[C@@H]2C[C@@H](O)CN2C(=O)[C@@H](NC(=O)CCN2CCN(c3ccc(C(=O)N4[C@@H]5CC[C@H]4C[C@@H](Oc4ccc(C#N)c(Cl)c4)C5)cc3)CC2)C(C)(C)C)cc1` are 1.87%, 2.74%, 61.2% and 18.2%.
On the same counts, the results for `C[C@@]12C[C@H](NC(=O)c3ccc(N4CCN(CCCCCCNc5ccc6c(c5)C(=O)N(C5CCC(=O)NC5=O)C6=O)CC4)cc3)C[C@]1(C)C[C@@H](Oc1ccc(C#N)c(Cl)c1)C2` (stereo partly specified) are 30.7%, 31.8%, 35.3% and 34.5%.
